Laboratory results: patent publication US4263437A, “Acetic acid derivatives of 5,6-dihydrobenzo[b]pyrido[3,2-f]thiepine and oxepine” (Nippon Chemiphar Co., Ltd., priority 1978, dated 1981)

System: carrageenan-induced edema in the hind paws
Assay: Carrageenan-induced hind paw edema in rats (oral administration)
Assay type: in vivo, Male Wistar rats
Details: Rattus norvegicus, 1 hour before 0.1 ml of 1% carrageenan, 3 hours
Procedure: Male Wistar rats each weighing about 100 g, one group consisting of 5 to 7 animals, were orally given the compounds according to this invention, and edema was induced in the hind paws by subcutaneous injections of 0.1 ml of 1% carrageenan one hour after the administration of the test compounds. Thereafter, the volumes of the hind paws were measured by a volume differential meter.

SMILES	inhibition in vivo at 5 mg/kg [%]
O=C(O)Cc1ccc2c(c1)CCc1ccccc1S2 [Compound 4, (10,11-Dihydro dibenzo[b,f]thiepin-2-yl)-acetic acid]	45.3
CCOC(=O)Cc1ccc2c(c1)CCc1ccccc1S2 [Compound 5, Ethyl(10,11-dihydrodibenzo[b,f]thiepin-2-yl)-acetate]	46
O=C(O)Cc1ccc2c(c1)C(=O)Cc1ccccc1S2 [Compound 1, (10,11-Dihydro-11-oxo dibenzo[b,f]thiepin-2-yl)-acetic acid]	58
CCOC(=O)Cc1ccc2c(c1)C(=O)Cc1ccccc1O2 [Compound 7, Ethyl(10,11-dihydro-11-oxodibenzo[b,f]oxepin-2-yl)-acetate]	47.9
CCCCC1C(=O)N(c2ccccc2)N(c2ccccc2)C1=O [Phenylbutazone, reference compound]	20.9
O=C(O)c1ccccc1Nc1cccc(C(F)(F)F)c1 [Flufenamic acid, reference compound]	29.3
O=C(O)Cc1ccc2c(c1)C(=O)Cc1ccccc1O2 [Compound 6, (10,11-dihydro-11-oxo dibenzo[b,f]oxepin-2-yl)-acetic acid]	44.1
O=C(O)Cc1ccc2c(c1)CCc1cccnc1O2 [Compound 14, (5,6-Dihydro benzo[b]pyrido[3,2-f]oxepin-8-yl)-acetic acid]	50.6
CCOC(=O)Cc1ccc2c(c1)CCc1cccnc1O2 [Compound 15, Ethyl(5,6-dihydrobenzo[b]pyrido[3,2-f]oxepin-8-yl)-acetate]	41.6
NC(=O)Cc1ccc2c(c1)CCc1cccnc1S2 [Compound 12, (5,6-Dihydro benzo[b]pyrido[3,2-f]thiepin-8yl)-acetamide]	43.9
CCOC(=O)Cc1ccc2c(c1)CCc1cccnc1S2 [Compound 13, Ethyl(5,6-dihydrobenzo[b]pyrido[3,2-f]thiepin-8-yl)-acetate]	64.6
COC(=O)Cc1ccc2c(c1)C(=O)Cc1cccnc1S2 [Compound 10, Methyl (5,6-dihydro-6-oxo benzo[b]pyrido[3,2-f]thiepin-8-yl)-acetate]	38.4
NC(=O)Cc1ccc2c(c1)C(=O)Cc1ccccc1S2 [Compound 2, (10,11-Dihydro-11-oxo dibenzo[b,f]thiepin-2-yl)-acetamide]	42.1
O=C(O)Cc1ccc2c(c1)CCc1cccnc1S2 [Compound 11, (5,6-Dihydro benzo[b]pyrido[3,2-f]thiepin-8-yl)-acetic acid]	59.7
CCOC(=O)Cc1ccc2c(c1)C(=O)Cc1ccccc1S2 [Compound 3, Ethyl(10,11-dihydro-11-oxodibenzo[b,f]thiepin-2-yl)-acetate]	50.6
O=C(O)Cc1ccc2c(c1)CCc1ccccc1O2 [Compound 8, (10,11-Dihydro dibenzo[b,f]oxepin-2-yl)-acetic acid]	61.4
CCOC(=O)Cc1ccc2c(c1)CCc1ccccc1O2 [Compound 9, Ethyl (10,11-dihydro dibenzo[b,f]oxepin-2-yl)-acetate]	63.4
